Structures are written as SMILES.

For this experiment, the target named is human growth hormone secretagogue receptor (hGHS-R1a) (Homo sapiens, UniProt Q92847). In words: Competitive radioligand binding assay (ghrelin receptor), standard method A. The note with it: binding activity at the human ghrelin receptor, standard method A. The text has this: A competitive binding assay at the human growth hormone secretagogue receptor (hGHS-R1a) can be carried out analogously to assays described in the literature. (Bednarek, M. A.; et al. J. Med. Chem. 2000, 43, 4370-4376; Palucki, B. L.; et al. Bioorg. Med. Chem. Lett. […], 11, 1955-1957.) See also U.S. patent application Ser. Nos. 11/149,512 and 11/149,731. Binding activity at the gherlin receptor for representative compounds of the present invention is shown in the Examples below.
human growth hormone secretagogue receptor (hGHS-R1a), sequence (Q92847 whole entry): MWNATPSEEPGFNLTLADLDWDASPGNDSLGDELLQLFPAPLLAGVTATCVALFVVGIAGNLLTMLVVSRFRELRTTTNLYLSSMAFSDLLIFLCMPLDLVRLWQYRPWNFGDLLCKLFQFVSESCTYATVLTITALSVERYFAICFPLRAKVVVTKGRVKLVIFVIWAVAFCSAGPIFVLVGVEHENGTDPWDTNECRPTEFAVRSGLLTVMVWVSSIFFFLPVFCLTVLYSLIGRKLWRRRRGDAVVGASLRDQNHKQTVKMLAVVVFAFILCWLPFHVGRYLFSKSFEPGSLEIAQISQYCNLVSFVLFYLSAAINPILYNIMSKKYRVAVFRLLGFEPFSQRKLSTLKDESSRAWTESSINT
Broadly, the Ki is the equilibrium dissociation constant of an inhibitor or competing ligand from its target. Low values mean a stronger hold on the target, high ones a looser hold on the target. Consider `CC1CNC(C2CC2)C(=O)N(C)C(C)C(=O)NC(Cc2ccc(F)cc2)C(=O)NCCCC2CCCCC2O1` (mixture of isomers) [Compound 1052], for which the Ki is at most 1 nM.
To `CCC[C@@H]1NC[C@@H](C)Oc2ccccc2CCCNC(=O)[C@@H](Cc2ccc(F)cc2)NC(=O)[C@@H](C)N(C)C1=O` [Compound 853] belongs at most 100 nM.
To `CC(=O)Oc1ccc(CC2NC(=O)C(C)N(C)C(=O)C(C3CC3)NCC(C)Oc3ccccc3CCCNC2=O)cc1F` (mixture of isomers) [Compound 1065] belongs at most 100 nM; to `CC[C@H](C)[C@@H]1NC[C@@H](C)Oc2ccccc2CCCNC(=O)[C@@H](Cc2ccc(F)cc2)NC(=O)[C@@H](C)N(C)C1=O` [Compound 855], at most 100 nM.
As for `C[C@@H]1CN[C@@H](C2CC2)C(=O)N(C)[C@H](C)C(=O)N[C@H]([C@@H](C)c2ccc(O)cc2)C(=O)NCCCc2ccccc2O1` [Compound 1068], the Ki is at most 100 nM.
To `CC1C(=O)NC(Cc2ccc(O)cc2)C(=O)NCCCc2c(F)cccc2OCCNC(C2CC2)C(=O)N1C` (centres unmarked) [Compound 1110] belongs at most 100 nM.
To `CC[C@H](C)[C@@H]1NC[C@@H](C)Oc2ccccc2CCCNC(=O)[C@@H](Cc2ccccc2)NC(=O)[C@@H](CO)N(C)C1=O` [Compound 939] belongs at most 100 nM; to `C[C@@H]1C(=O)N[C@H](Cc2ccc(F)cc2)C(=O)NCCCc2cccc3c2OC(CC3)CN[C@@H](C2CC2)C(=O)N1C` (some centres unmarked) [Compound 946], at most 10 nM; to `CC[C@H](C)[C@@H]1NC[C@@H](C)Oc2c(F)cccc2CCCNC(=O)[C@@H](CC(C)C)NC(=O)[C@@H](C)N(C)C1=O` [Compound 981], at most 10 nM.
To `C[C@@H]1C(=O)N[C@H](Cc2ccc(O)cc2)C(=O)N[C@@H](C)CCc2ccccc2OCCN[C@@H](C2CC2)C(=O)N1C` [Compound 1083] belongs at most 100 nM.
The molecule `C[C@@H]1CN[C@@H](C2CC2)C(=O)N(C)[C@H](C)C(=O)N[C@H]([C@H](C)c2ccc(O)cc2)C(=O)NCCCc2ncccc2O1` [Compound 1081] yielded a Ki of over 500 nM.
In turn, `CC1CNC(C2CC2)C(=O)N(C)C(C)C(=O)NC(Cc2ccc(O)c(F)c2)C(=O)NCCCc2ccccc2O1` (mixture of isomers) [Compound 1049] showed a Ki of at most 100 nM.
To `CC(C)[C@@H]1NC[C@H](C)Oc2ccccc2CCCNC(=O)[C@@H](Cc2ccccc2)NC(=O)[C@@H](C)N(C)C1=O` [Compound 870] belongs at most 500 nM; to `C[C@@H]1CN[C@@H](C2CC2)C(=O)N(C)[C@H](C)C(=O)N[C@H](Cc2cc(Br)c(O)c(Br)c2)C(=O)NCCCc2ccccc2O1` [Compound 1053], at most 100 nM; to `CC1CNC(C2CC2)C(=O)N(C)C(C)C(=O)NC(C(C)(C)C)C(=O)NCCCc2cccc(F)c2O1` (centres unmarked) [Compound 1044], at most 500 nM.
To `C[C@@H]1CN[C@@H](C2CC2)C(=O)N(C)[C@H](C)C(=O)N[C@H](CC(=O)O)C(=O)NCCCc2ccccc2O1` [Compound 1036] belongs over 500 nM.
To `CC[C@H](C)[C@@H]1NC[C@@H](C)Oc2cccnc2CCCNC(=O)[C@@H](Cc2ccccc2)NC(=O)[C@@H](C)N(C)C1=O` [Compound 1030] belongs at most 100 nM; to `CC[C@H](C)[C@@H]1NC[C@@H](C)Oc2cccnc2CCCNC(=O)[C@@H](Cc2ccc(F)cc2)NC(=O)[C@@H](C)N(C)C1=O` [Compound 1029], at most 10 nM; to `CCC[C@@H]1NC[C@H](C)Oc2ccccc2CCCNC(=O)[C@@H](Cc2ccccc2)NC(=O)[C@@H](C)N(C)C1=O` [Compound 859], at most 500 nM.
For the molecule `C[C@@H]1C(=O)N[C@H](Cc2cccc(Cl)c2)C(=O)NCCCc2ccccc2OCCN[C@@H](C2CC2)C(=O)N1C` [Compound 873], the Ki is at most 100 nM.
To `CC(C)[C@@H]1CN[C@@H](C2CC2)C(=O)N(C)[C@H](C)C(=O)N[C@H](Cc2ccc(Cl)cc2)C(=O)NCCCc2ccc(F)cc2O1` [Compound 966] belongs at most 500 nM; to `CC[C@H](C)[C@@H]1NC[C@@H](C)Oc2ccccc2CCCNC(=O)[C@@H](Cc2ccncc2)NC(=O)[C@@H](C)N(C)C1=O` [Compound 978], at most 100 nM.
To `C[C@@H]1CN[C@@H](C2CC2)C(=O)N(C)[C@H](C)C(=O)N[C@H](Cc2ccc(F)cc2)C(=O)NCCC(C)(C)c2ccccc2O1` [Compound 1071] belongs at most 500 nM; to `CC[C@H](C)[C@@H]1NC[C@@H](C)Oc2ccccc2CCCNC(=O)[C@@H](Cc2ccc(Cl)cc2)NC(=O)[C@@H](C)N(C)C1=O` [Compound 878], at most 100 nM; to `C[C@@H]1C(=O)N[C@H](Cc2ccccc2)C(=O)NCCCc2cccc3c2OC(CC3)CN[C@@H](C2CC2)C(=O)N1C` (some centres unmarked) [Compound 874], at most 100 nM.
Molecule `CC[C@H](C)[C@@H]1NCCOc2ccccc2CCCNC(=O)[C@@H](Cc2ccccc2)NC(=O)[C@@H](CF)N(C)C1=O` [Compound 954] gave a Ki of at most 500 nM.
To `C[C@@H]1CN[C@@H](C2CC2)C(=O)N(C)[C@H](C)C(=O)N[C@H](C2CC2)C(=O)NCCCc2ccccc2O1` [Compound 1048] belongs over 500 nM; to `C[C@@H]1CN[C@@H](C2CC2)C(=O)N(C)[C@H](C)C(=O)N[C@H](CC2CCCCC2)C(=O)NCCCc2ccccc2O1` [Compound 1045], at most 100 nM.
To `C[C@@H]1CN[C@@H](C2CC2)C(=O)N(C)[C@H](C)C(=O)N[C@H](Cc2ccc(Cl)cc2)C(=O)NCCCc2cccc(F)c2O1` [Compound 936] belongs at most 100 nM; to `CCC[C@@H]1NC[C@@H](C)Oc2ccccc2CCCNC(=O)[C@@H](Cc2ccc(OC)cc2)NC(=O)[C@@H](C)N(C)C1=O` [Compound 866], at most 100 nM.
To `C[C@@H]1CN[C@@H](C2CC2)C(=O)N(C)[C@H](C)C(=O)N[C@H](Cc2ccc(Cl)cc2Cl)C(=O)NCCCc2ccccc2O1` [Compound 1039] belongs at most 100 nM; to `C[C@@H]1CN[C@@H](C2CC2)C(=O)N(C)[C@H](C)C(=O)N[C@H](Cc2ccc(O)cc2)C(=O)NCCCc2cccc(F)c2O1` [Compound 991], at most 100 nM.
With `CC1C(=O)NC(Cc2ccc(F)cc2)C(=O)NCCCc2c(F)cccc2OCCNC(C2CC2)C(=O)N1C` (centres unmarked) [Compound 1109], the Ki is at most 10 nM.
To `C[C@@H]1CN[C@@H](C2CC2)C(=O)N(C)[C@H](C)C(=O)N[C@H](Cc2ccc(F)cc2)C(=O)NCCCc2cccc(Cl)c2O1` [Compound 1007] belongs at most 100 nM.
Molecule `CC(C)C[C@H]1NC(=O)[C@@H](C)N(C)C(=O)[C@H](C2CC2)NC[C@@H]2CCc3cccc(c3O2)CCCNC1=O` [Compound 1015] registered a Ki of at most 500 nM.
To `COc1ccc(C[C@H]2NC(=O)[C@@H](C)N(C)C(=O)[C@H](C3CC3)NC[C@@H](C)Oc3ccccc3CCCNC2=O)cc1` [Compound 867] belongs at most 100 nM; to `CC[C@H](C)[C@@H]1NC[C@@H](C)Oc2cccnc2CCCNC(=O)[C@@H](Cc2ccc(O)cc2)NC(=O)[C@@H](C)N(C)C1=O` [Compound 1026], at most 100 nM; to `C[C@@H]1CN[C@@H](C2CC2)C(=O)N(C)[C@H](C)C(=O)N[C@H](Cc2ccccn2)C(=O)NCCCc2ccccc2O1` [Compound 972], at most 100 nM.
To `CC[C@H](C)[C@@H]1NC[C@@H](C)Oc2cc(F)ccc2CCCNC(=O)[C@@H](Cc2ccc(F)cc2)NC(=O)[C@@H](C)N(C)C1=O` [Compound 856] belongs at most 500 nM; to `C[C@@H]1CN[C@@H](C2CC2)C(=O)N(C)[C@H](C)C(=O)N[C@H](c2ccc(O)cc2)C(=O)NCCCc2ccccc2O1` [Compound 1103], over 500 nM; to `CC(C)[C@@H]1CN[C@@H](C2CC2)C(=O)N(C)[C@H](C)C(=O)N[C@H](Cc2ccccc2)C(=O)NCCCc2ccc(F)cc2O1` [Compound 965], at most 500 nM.
To `COC(=O)C[C@H]1NC(=O)[C@@H](C)N(C)C(=O)[C@H](C2CC2)NC[C@@H](C)Oc2ccccc2CCCNC1=O` [Compound 1090] belongs at most 500 nM.
Consider `C[C@@H]1C(=O)N[C@H](Cc2ccc(O)cc2)C(=O)NCCCc2cccc3c2OC(CN[C@@H](C2CC2)C(=O)N1C)C3` (some centres unmarked) [Compound 1025], for which the Ki is at most 500 nM.
To `C[C@@H]1CN[C@@H](C2CC2)C(=O)N(C)[C@H](C)C(=O)N[C@H](Cc2ccccc2)C(=O)NCCCc2ccccc2O1` [Compound 851] belongs at most 100 nM.
To `CC(C)CC1NC(=O)C(C)N(C)C(=O)C(C2CC2)NCC(C)OC2CCCCC2CCC(C)NC1=O` (centres unmarked) [Compound 1107] belongs at most 100 nM.
To `C[C@@H]1C(=O)N[C@H](Cc2cccs2)C(=O)NCCCc2ncccc2OCCN[C@@H](C2CC2)C(=O)N1C` [Compound 995] belongs at most 100 nM; to `C[C@@H]1C(=O)N[C@H](Cc2ccc(Cl)cc2)C(=O)NCCCc2cccc3c2OC(CC3)CN[C@@H](C2CC2)C(=O)N1C` (some centres unmarked) [Compound 947], at most 10 nM; to `C[C@@H]1C(=O)N[C@H](Cc2ccc(O)cc2)C(=O)NCCCc2nccc3c2O[C@H](CC3)CN[C@@H](C2CC2)C(=O)N1C` [Compound 1074], at most 100 nM.
For the molecule `CC(C)C[C@H]1NC(=O)[C@@H](C)N(C)C(=O)[C@H](C2CC2)NCCOc2ccccc2CC[C@H](C)NC1=O` [Compound 1084], the Ki was at most 100 nM.
To `C[C@@H]1C(=O)N[C@H]([C@@H](C)c2ccc(O)cc2)C(=O)NCCCc2nccc3c2O[C@H](CC3)CN[C@@H](C2CC2)C(=O)N1C` [Compound 1076] belongs at most 100 nM; to `CC1CNC(C2CCCCC2)C(=O)N(C)C(C)C(=O)NC(Cc2ccc(O)cc2)C(=O)NCCCc2ccccc2O1` (centres unmarked) [Compound 1108], at most 1 nM; to `CC(C)CC1NC(=O)C(C)N(C)C(=O)C(C2CCCCC2)NCCOc2cc(F)ccc2CCCNC1=O` (centres unmarked) [Compound 1112], at most 1 nM.
In the case of `CC1CNC(C2CC2)C(=O)N(C)C(C)C(=O)NC(Cc2ccccc2O)C(=O)NCCCc2ccccc2O1` (mixture of isomers) [Compound 1101], the Ki was at most 500 nM.
